Patent US10016373B2, “CB2 receptor ligands for the treatment of psychiatric disorders” (priority 2013, dated 2018)
Read-outs that look alike come from different tables or passages of the source.

Columns and labels:
osteoclastogenesis = settings: Schuehly et al. 2011; cited from earlier work
mice [1] = assay: Prepulse inhibition (PPI) of the startle reflex; assay type: in vivo
Experimental: Attention Test: Prepulse Inhibition (PPI) of the Startle Reflex
A weak audible stimulus (74-90 dB tone) “prepulse” was used to inhibit the acoustic startle response to a subsequent strong audible stimulus (120 dB tone) “pulse”. Reduced prepulse inhibition of the startle reflex (PPI) was taken as an index of the positive symptoms of deficits in attention.
PPI was assessed similarly to the method described by Varty et al. (2001). Mice were placed in a startle chamber and allowed to acclimatize for 5 minutes A loudspeaker produced startling “pulse” at 120 dB and thereafter 65 dB background white noise or one of […] 20 ms duration “prepulses” at 74, 78, 82, 86, and 90 dB followed after 20 ms by a 40 ms startling “pulse” at 120 dB. The response of each mouse was recorded and stored by a computer. Each test session lasted for 11 minutes and consisted of 5 presentations of each of the prepulse/pulse sound stimuli (total of 30 or 35) presented in random order and separated by 15 second intervals. The magnitude of prepulse inhibition was calculated as percentage PPI=[1-(acoustic startle for prepulse+pulse)/(acoustic startle for pulse alone)]×100.

mice [2] = assay: Vocal tics, ultrasonic voice recording; assay type: in vivo
Experimental: Mice were recorded at the age of 13 or 23-25 weeks with an ultrasonic voice recorder (Noldus). Mice were recorded at the age of 29 days with an ultrasonic voice recorder (AviSoft). Single mice were recorded in a cage for 10 min (according to sex and type of treatment). The number and duration of events at 20-40 kHz and at 50-70 kHz were analyzed. In some experiments, 24 h following M1 treatment, each mouse was recorded for 10 min before and after stress. Stress was induced by incubation for 10-15 min in a mouse restrainer.

mice [3] = assay: Impulsivity, Elevated Plus Maze; assay type: in vivo; settings: CB2 agonist2 model mice at 13 weeks, M1 5 mg/kg i.p. 24 hours before the test
Experimental: The treatment consisted of a single intravenous administration of the vehicle or the M1 solution Impulsivity was tested 24 hours after treatment.
Impulsivity as measured by the paucity of time spent on the two anxiety-provoking, open arms (as opposed to the two enclosed arms) of an “Elevated Plus Maze” was used as a parameter of negative symptoms of schizophrenia (Josselyn and Vaccarino, 1998). The plus maze was elevated 50 cm above the table top. Behavior of each mouse was recorded for 5 minutes by a video camera and scored using the “EthoVision” software (Noldus), measuring the number of entries as well as the amount of time spent in each arm, open or closed. Reduced time spent in the closed arms indicated reduced anxiety. Increased time spent in the opened arms indicated increased risk behavior (hyperactive and impulsive).
The treatment consisted of a single i.p. administration of the vehicle or the M1 solution. The duration ratio open arm/close arm and the frequency ratio open arm/close arm in the Elevated Plus Maze were evaluated 24 hours after treatment with either vehicle or M1.

[4] = tested on: mouse model of Alzheimer's disease; settings: orally administered, Lee et al. 2012; cited from earlier work
CB2 receptor [5] = target: T1, CB2 receptor (Homo sapiens, UniProt P34972); settings: cited from earlier work
T1 construct: expressed in transfected cells; host or cells: CHO cells
T1 sequence (P34972 whole entry): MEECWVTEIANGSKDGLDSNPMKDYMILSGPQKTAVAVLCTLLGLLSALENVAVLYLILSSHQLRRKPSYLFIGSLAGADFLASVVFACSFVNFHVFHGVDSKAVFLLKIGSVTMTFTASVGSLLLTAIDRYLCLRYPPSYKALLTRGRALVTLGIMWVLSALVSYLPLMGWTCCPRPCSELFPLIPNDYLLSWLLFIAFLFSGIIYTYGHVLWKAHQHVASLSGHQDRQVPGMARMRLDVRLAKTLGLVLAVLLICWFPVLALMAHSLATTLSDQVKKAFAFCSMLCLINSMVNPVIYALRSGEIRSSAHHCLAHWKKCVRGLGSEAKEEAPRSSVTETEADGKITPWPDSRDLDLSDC

CB2 receptor [6] = target: T1, CB2 receptor; settings: cited from earlier work; remark: listed apart in the source
Body weight = assay type: in vivo; settings: postnatal day 100; mice treated with 0.5 mg/kg CB2 agonist2; FIG. 16C
presenilin 2 mutant mice = settings: cited from earlier work
mice [7] = assay type: in vivo
Experimental: For the treated mice, one of the two CB2 receptor-selective agonist solutions: either CB2 agonist2 solution or H-308 solution, was administered by intravenous administration to mice pups to induce ADHD-like behavior and/or obsessive-compulsive-like behavior as a murine model for ADHD and OCD. […] In order to test the effect of non-agonist or mixed-type agonist/inverse agonist CB2 receptor ligands on hyperactivity, the effects of M1 were studied.
Open-Field Test (Crossing and Rearing, Defecation, Grooming)
Mice were assessed for hyperactive behavior on postnatal days 16-20, 26-39, at age 13 weeks and at age 23 weeks. Mice were placed in the center of a transparent glass cage 30×40×31 cm divided into squares of 7.5×7.5 cm. The number of squares crossed and the rearing activity were evaluated for 8 min.

[8] = CB2 receptor, Schuehly et al. 2011

C=CCc1ccc(O)c(-c2ccc(OC)c(CC=C)c2)c1 [M1, 2-(4-Methoxy-3-prop-2-enylphenyl)-4-prop-2-enylphenol]
prevent: amyloidogenesis and progression of AD [4]
partial agonism: activity via Ca2+ pathway (CB2 receptor [5]; [8])
potently inhibits: osteoclastogenesis (osteoclastogenesis)
reversed: response to pre-pulse tone (mice [1]; mice treated with 0.5 mg/kg CB2 agonist2, FIG. 15B) | response to 120 dB (mice [1]; postnatal day 100, 0.5 mg/kg CB2 agonist2 mice, re-evaluated at the end of the experiment, FIG. 16B) | % PPI (pre-pulse inhibition) (mice [1]; postnatal day 100, mice treated with 0.5 mg/kg CB2 agonist2, FIG. 15A) | number of vocal events (mice [2]; 20-40 KHz, day 29, female mice, CB2 agonist2 0.5 mg/kg at the age of 3-15 days, M1 5 mg/kg on day 29, FIG. 14A) | duration of vocals (mice [2]; 20-40 KHz, day 29, female mice, CB2 agonist2 0.5 mg/kg at the age of 3-15 days, M1 5 mg/kg on day 29, FIG. 14B) | number of vocal events (mice [2]; female mice 23-25 weeks, 20-40 KHz, stress, CB2 agonist2 5 mg/kg postnatal days 5-13, M1 given to model mice, FIG. 7A) | total duration of vocal events (mice [2]; female mice 23-25 weeks, 20-40 KHz, stress, CB2 agonist2 5 mg/kg postnatal days 5-13, M1 given to model mice, FIG. 7B) | mean duration of vocal events (mice [2]; female mice 23-25 weeks, 20-40 KHz, stress, CB2 agonist2 5 mg/kg postnatal days 5-13, M1 given to model mice, FIG. 7C) | number of vocal events (mice [2]; female mice 23-25 weeks, 50-70 KHz, stress, CB2 agonist2 5 mg/kg postnatal days 5-13, M1 given to model mice, FIG. 8A) | total duration of vocal events (mice [2]; female mice 23-25 weeks, 50-70 KHz, stress, CB2 agonist2 5 mg/kg postnatal days 5-13, M1 given to model mice, FIG. 8B) | mean duration of vocal events (mice [2]; female mice 23-25 weeks, 50-70 KHz, stress, CB2 agonist2 5 mg/kg postnatal days 5-13, M1 given to model mice, FIG. 8C) | total duration of vocal events (mice [2]; male mice 23-25 weeks, 20-40 KHz, before stress, CB2 agonist2 5 mg/kg postnatal days 5-13, M1 given to model mice, FIG. 9A) | mean duration of vocal events (mice [2]; male mice 23-25 weeks, 20-40 KHz, before stress, CB2 agonist2 5 mg/kg postnatal days 5-13, M1 given to model mice, FIG. 9B) | total duration of vocal events (mice [2]; male mice 23-25 weeks, 50-70 KHz, before stress, CB2 agonist2 5 mg/kg postnatal days 5-13, M1 given to model mice, FIG. 10A) | mean duration of vocal events (mice [2]; male mice 23-25 weeks, 50-70 KHz, before stress, CB2 agonist2 5 mg/kg postnatal days 5-13, M1 given to model mice, FIG. 10B) | impulsive/hyperactive behavior (mice [3]) | grooming (mice [7]; CB2 agonist2 0.5 mg/kg at the age of 3-15 days, M1 5 mg/kg on day 29, measured on day 39, stressed female mice, FIG. 13A) | feces secretion (mice [7]; CB2 agonist2 0.5 mg/kg at the age of 3-15 days, M1 5 mg/kg on day 29, measured on day 39, stressed female mice, FIG. 13B) | rearing (mice [7]; CB2 agonist2 0.5 mg/kg at the age of 3-15 days, M1 on day 29, measured on day 36, unstressed female mice, FIG. 12A) | ambulation (mice [7]; CB2 agonist2 0.5 mg/kg at the age of 3-15 days, M1 on day 29, measured on day 39, stressed female mice, FIG. 12B) | ambulation (mice [7]; CB2 agonist2 0.5 mg/kg model, M1 injected on day 29, measured the same day, stressed females, FIG. 11B) | rearing (mice [7]; CB2 agonist2 0.5 mg/kg model, M1 injected on day 29, measured the same day, stressed females, FIG. 11D) | hyperactivity (mice [7]; age of 3 months, 0.1 mg/kg HU-308, M1 5 mg/kg in gavage 30 minutes before the experiment, FIGS. 17A-B) | ambulation (mice [7]; model mice 5 mg/kg CB2 agonist2 postnatal days 1-5, M1 5 mg/kg single i.p. at 13 weeks, 30 minutes after treatment, FIG. 5A) | rearing (mice [7]; model mice 5 mg/kg CB2 agonist2 postnatal days 1-5, M1 5 mg/kg single i.p. at 13 weeks, 30 minutes after treatment, FIG. 5B) | secretion of feces (mice [7]; model mice 5 mg/kg CB2 agonist2 postnatal days 5-13, M1 5 mg/kg single i.p. at 23 weeks, FIG. 4C) | grooming duration (mice [7]; model mice 5 mg/kg CB2 agonist2 postnatal days 5-13, M1 5 mg/kg single i.p. at 23 weeks, tested 48 hours after treatment, FIG. 4A) | grooming frequency (mice [7]; model mice 5 mg/kg CB2 agonist2 postnatal days 5-13, M1 5 mg/kg single i.p. at 23 weeks, tested 48 hours after treatment, FIG. 4B)
orally available: oral availability (mice [7]; inferred from efficacy of M1 5 mg/kg given in gavage)
attenuates: memory impairment (presenilin 2 mutant mice)
increasing: intracellular Ca2+ concentration (CB2 receptor [5]; known dual effects of M1) | cAMP production (CB2 receptor [6]; known dual effects of M1)
inverse agonism: activity via cAMP pathway (CB2 receptor [6]; [8])
no effect: response to the startle tone of 120 dB (mice [1]; postnatal day 100, 0.5 mg/kg CB2 agonist2 mice, at the beginning of the experiment, FIG. 16A) | body weight (Body weight)
